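At the GI50, growth is halved. The concentration for full growth arrest is given as TGI.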
What was measured:
Experiment in all cases: DTP human tumour cell line panel, 384-well format
786-0 renal = tested on: 786-0 renal
A498 renal = tested on: A498 renal
A549 NSCLC = tested on: A549 NSCLC
ACHN renal = tested on: ACHN renal
BT-549 breast = tested on: BT-549 breast
CAKI-1 renal = tested on: CAKI-1 renal
CCRF-CEM leukemia = tested on: CCRF-CEM leukemia
COLO 205 colon = tested on: COLO 205 colon
DU-145 prostate = tested on: DU-145 prostate
EKVX NSCLC = tested on: EKVX NSCLC
HCC-2998 colon = tested on: HCC-2998 colon
HCT-116 colon = tested on: HCT-116 colon
HCT-15 colon = tested on: HCT-15 colon
HL-60(TB) leukemia = tested on: HL-60(TB) leukemia
HOP-62 NSCLC = tested on: HOP-62 NSCLC
HOP-92 NSCLC = tested on: HOP-92 NSCLC
HS 578T breast = tested on: HS 578T breast
HT29 colon = tested on: HT29 colon
IGROV1 ovarian = tested on: IGROV1 ovarian
K-562 leukemia = tested on: K-562 leukemia
KM12 colon = tested on: KM12 colon
LOX IMVI melanoma = tested on: LOX IMVI melanoma
M14 melanoma = tested on: M14 melanoma
MALME-3M melanoma = tested on: MALME-3M melanoma
MCF7 breast = tested on: MCF7 breast
MDA-MB-231 breast = tested on: MDA-MB-231 breast
MDA-MB-435 melanoma = tested on: MDA-MB-435 melanoma
MDA-MB-468 breast = tested on: MDA-MB-468 breast
MOLT-4 leukemia = tested on: MOLT-4 leukemia

## COc1c/c(=C2/C=c3ccccc3=N2)[nH]/c1=C/c1[nH]c(C)cc1C
786-0 renal
  GI50: 13.8 nM
  TGI: 33.8 nM
A498 renal
  GI50: 81 nM
  TGI: 1070 nM
A549 NSCLC
  GI50: 120 nM
  TGI: 385 nM
ACHN renal
  GI50: 32.5 nM
  TGI: 123 nM
BT-549 breast
  GI50: 15.6 nM
  TGI: 58.2 nM
CAKI-1 renal
  GI50: 45.2 nM
  TGI: 269 nM
CCRF-CEM leukemia
  GI50: 16.4 nM
  TGI: 32.8 nM
COLO 205 colon
  GI50: 24.6 nM
  TGI: 68.9 nM
DU-145 prostate
  GI50: 33.8 nM
  TGI: 1060 nM
EKVX NSCLC
  GI50: 24.5 nM
  TGI: 81.2 nM
HCC-2998 colon
  GI50: 17.1 nM
  TGI: 69 nM
HCT-116 colon
  GI50: 17.2 nM
  TGI: 33.1 nM
HCT-15 colon
  GI50: 17.9 nM
  TGI: 35.2 nM
HL-60(TB) leukemia
  GI50: 17.3 nM
  TGI: 31.6 nM
HOP-62 NSCLC
  GI50: 24.1 nM
  TGI: 77.3 nM
HOP-92 NSCLC
  GI50: 23.9 nM
  TGI: 67.1 nM
HS 578T breast
  GI50: 26.3 nM
  TGI: 77.9 nM
HT29 colon
  GI50: 21.9 nM
  TGI: 54.8 nM
IGROV1 ovarian
  GI50: 30.9 nM
  TGI: 99.1 nM
K-562 leukemia
  GI50: 62.9 nM
  TGI: 244 nM
KM12 colon
  GI50: 27.8 nM
  TGI: 99.8 nM
LOX IMVI melanoma
  GI50: 17.7 nM
  TGI: 32.4 nM
M14 melanoma
  GI50: 22.3 nM
  TGI: 52.7 nM
MALME-3M melanoma
  GI50: 27.2 nM
  TGI: 64.3 nM
MCF7 breast
  GI50: 32 nM
  TGI: 106 nM
MDA-MB-231 breast
  GI50: 19.3 nM
  TGI: 52.7 nM
MDA-MB-435 melanoma
  GI50: 23.6 nM
  TGI: 53.2 nM
MDA-MB-468 breast
  GI50: 197 nM
  TGI: 587 nM
MOLT-4 leukemia
  GI50: 14.9 nM
  TGI: 28.7 nM
